Source: ChEMBL document CHEMBL1144748, “N-D-aldopentofuranosyl-N'-[p-(isoamyloxy)phenyl]-thiourea derivatives: potential anti-TB therapeutic agents” (2008)
Converted amounts (≈) assume the structure as drawn.

test system: Mycobacterium tuberculosis; assay: Antimycobacterial activity against Mycobacterium tuberculosis H37Rv by microplate alamar blue assay; assay type: functional

Row | SMILES | MIC [µg/mL]
1 | CC(C)CCOc1ccc(NC(=S)NC2O[C@H](CO)[C@H](O)[C@H]2O)cc1 (stereo not given in full) | 6.25 (≈ 16.9 µM)
2 | CC(C)CCOc1ccc(NC(=S)NC2O[C@H](CO)[C@@H](O)[C@@H]2O)cc1 (stereo not given in full) | 1.56 (≈ 4.21 µM)
3 | CC(C)CCOc1ccc(NC(=S)NC2O[C@H](CO)[C@@H](O)[C@H]2O)cc1 (stereo not given in full) | 3.12 (≈ 8.44 µM)
4 | CC(C)CCOc1ccc(NC(=S)NC2O[C@H](CO)[C@H](O)[C@@H]2O)cc1 (stereo not given in full) | 50 (≈ 135 µM)
5 | CC(C)CCOc1ccc(NC(=S)Nc2ccc(OCCC(C)C)cc2)cc1 [TIOCARLIDE] | 2.5 (≈ 6.24 µM)
